These molecules were tested against T1, Gag-Pol polyprotein [1148-1435] (Human immunodeficiency virus 1, UniProt P04585) (assay: HIV Integrase Strand Transfer Scintillation Proximity Assay (SPA)). Conditions: pH 7.2; 37 °C.
T1 construct: 1148-1435
Description: Purified recombinant integrase was first combined in a complex with biotinylated donor DNA- streptavidin-coated SPA beads. The complex was preincubated with the test compound, and strand transfer was initiated with a radiolabeled target DNA substrate. After incubation, the incorporated radioactivity was read in a Wallac MicroBeta scintillation plate reader using a counting protocol that corrected for optical cross talk between wells.
Work on `O=S1(=O)CCCCN1c1nc(-c2noc(Cc3ccc(F)cc3)n2)c(O)c2ncccc12` [2-(7-{5-[(4-fluorophenyl)methyl]-1,2,4-oxadiazol-3-yl}-8-hydroxy-1,6-naphthyridin-5-yl)-1,2-thiazinane-1,1-dione] yielded an IC50 greater than 100 µM. In the case of `O=C(NCc1ccc(F)cc1)c1nc(N2CCCCS2(=O)=O)c2cccnc2c1O` [5-(1,1-dioxo-1,2-thiazinan-2-yl)-N-[(4-fluorophenyl)methyl]-8-hydroxy-1,6-naphthyridine-7-carboxamide], the IC50 is reported as 0.013 µM. Work on `Oc1c(-c2noc(-c3ccccc3)n2)ncc2cccnc12` [7-(5-phenyl-1,2,4-oxadiazol-3-yl)-1,6-naphthyridin-8-ol] yielded an IC50 greater than 100 µM. `Cn1nc(Cc2ccc(F)cc2)nc1-c1ncc2cccnc2c1O` [7-{3-[(4-fluorophenyl)methyl]-1-methyl-1H-1,2,4-triazol-5-yl}-1,6-naphthyridin-8-ol] showed an IC50 greater than 500 µM.

From BindingDB's records for doi:10.1016/j.bmcl.2009.01.090 (Gsk, 2009)
